This is an account of results in patent US5466687A, “Arylidene-1-azacycloalkanes and arylalkyl-1-azacyclo-alkanes, their salts, medicaments containing these compounds and their use, and processes for their preparation” (priority 1992, dated 1995).

The structures appear in SMILES notation. Converted amounts (≈) assume the structure as drawn.

For series [1], the system named is 2,3-epoxysqualene-lanosterol cyclase. Description: In vivo effect in the rat after oral administration: 2,3-epoxysqualene level in plasma. Further details: species or system rat (male Wistar). Particulars: 5 hours after administration. On the procedure:
II. Measurement of the in vivo effect in the rat after oral administration
The inhibition of the enzyme 2,3-epoxysqualene-lanosterol cyclase causes an increase in the 2,3-epoxy-squalene level in the liver and plasma. Therefore, the amount of 2,3-epoxysqualene formed therefore serves as a direct measure of the effectiveness in the whole animal. The determination is carried out by the following method:
The test substance suspended in 1.5% strength aqueous methylcellulose is administered via stomach tube to male Wistar rats (160-190 g body weight). 5 hours after administration, blood is obtained retroorbitally from the venous plexus. Plasma is extracted by the method of Bligh and Dyer (Canad. J. Biochem. Physiol. 37, 912, [1959]), purified by means of a precolumn and then analyzed by means of HPLC. The peaks obtained are identified and quantified by means of calibration substances. An internal standard is used to check the reproducibility of the results.
The investigations were carried out using concentrations of 0.1 and 1.0 mg/kg. The results for the above mentioned substances A to M are compiled in the following Table by way of example: […]

In series [2] the test system is Sacc. carlsbergensis ATCC 9080. Description: Fungistatic activity, serial dilution test. The series is classed as cell-based. Particulars: Saccharomyces pastorianus, ATCC9080, 2 to 4 days at 26° C. On the procedure:
(§1) VI. Determination of fungistatic activity The fungistatic activity was determined by means of the serial dilution test (microtitre system). Sabouraud broth was used as the nutrient medium. The inoculum was approximately 10^4 to 10^5 CFU/ml (CFU=colony-forming units); the incubation time was 2 to 4 days at 26° C. The minimum inhibitory concentration (MIC), i.e. the lowest concentration which no longer allowed visible growth, and the lowest concentration at which a decrease in growth of the test microorganism occurred in comparison with a control were determined. The above mentioned compound I was tested.

In the next series the test system is Rhodotorula rubra 49. Description: Fungistatic activity, serial dilution test. Format: cell-based. Particulars: 2 to 4 days at 26° C. The procedure:
as §1

The test system of series [3] is Trichophyton mentagrophytes ATCC 9129. Description: Fungistatic activity, serial dilution test. Format: cell-based. Particulars: ATCC9129, 2 to 4 days at 26° C. On the procedure: as §1
The subject of series [4] is Aspergillus niger ATCC 16404. Description: Fungistatic activity, serial dilution test. Particulars: ATCC16404, 2 to 4 days at 26° C. The series is classed as cell-based. On the procedure: as §1
Series [5] has as its system Candida albicans ATCC 10231. Briefly: Fungistatic activity, serial dilution test. Format: cell-based. Particulars: ATCC10231, 2 to 4 days at 26° C. On the procedure:
as §1

Series [6] relates to Penicillium notatum CBS 19746. Briefly: Fungistatic activity, serial dilution test. Format: cell-based. Particulars: Penicillium chrysogenum, CBS19746, 2 to 4 days at 26° C. The procedure: as §1
Series [7] can be described thus: Toxic effects in the mouse after oral administration. Particulars: oral 100 mg/kg, once daily for 4 days. Format: in vivo. The text has this: The compounds A to I appeared to be non-toxic at the curative dose.
The test system of series [8] is human hepatoma cells (HEP-G2). Briefly: Inhibition of 14C-acetate incorporation in digitonin-precipitatable steroids in HEP-G2 cells. The series is classed as cell-based. Particulars: Homo sapiens. On the procedure: I. Measurement of the inhibition of ^14 C-acetate incorporation in digitonin-precipitatable steroids:
After 3 days of culture, human hepatoma cells (HEP-G2) are stimulated for 16 hours in cholesterol-free medium. The substances to be tested (dissolved in dimethyl sulphoxide, final concentration 0.1%) are added during this stimulation phase. After the addition of 200 μmol/l of 2-^14 C-acetate, the mixture is then reincubated at 37° C. for a further 2 hours.
The cells are detached and the sterol esters are hydrolyzed and, after extraction, sterols are precipitated using digitonin. The ^14 C-acetate incorporated into digitonin-precipitatable sterols is determined by scintillation measurement.
The investigation of the inhibitory action was carried out at test concentrations of 10^-7 mol/l and 10^-8 mol/l. The test results of the following compounds A to AG of the general formula I are indicated at these test concentrations by way of example: […]

Where [9] appears, read: read-out: Decrease in growth (lowest concentration).

Consider `O=C(c1ccc(Cl)cc1)N1CCC(Cc2ccc(C3=NCCO3)cc2)CC1` [I, 1-(4-chlorobenzoyl)-4-[4-(2-oxazolin-2-yl)benzyl]piperidine], for which the “2,3-Epoxysqualene concentration in plasma (rat)” value in [1] (0.1 mg/kg oral) was 3.41 µg/mL; in series [1] (1.0 mg/kg oral) it was 8.41 µg/mL. Further, the MIC in [2] was 128 µg/mL (≈ 334 µM); in the series with Rhodotorula rubra 49, 128 µg/mL (≈ 334 µM); in series [3], 512 µg/mL (≈ 1340 µM); in series [4], above 1020 µg/mL; in [5], 128 µg/mL (≈ 334 µM); in [6] it was 128 µg/mL (≈ 334 µM). In addition, the minimal effective concentration worked out at 64 µg/mL in series [2] (setting [9]); 32 µg/mL in the series with Rhodotorula rubra 49 (setting [9]); 128 µg/mL in series [4] (setting [9]); 64 µg/mL in [5] (setting [9]); 64 µg/mL in series [6] (setting [9]). The “toxic effects in the mouse” value in series [7] is “no toxic effects”. Further, the percent change in 14C-acetate incorporation into sterols at 0.1 µM in series [8] (HepG2, 10^-7 mol/l) is -89%. Moreover, the percent change in 14C-acetate incorporation into sterols at 0.01 µM in [8] (HepG2, 10^-8 mol/l) was -75%.

As usually defined, the MIC is the lowest concentration found to suppress growth.
